US11129782B2, “Derivatives of PPD useful for coloring hair and skin” (National University of Singapore, priority 2017, dated 2021)
“And” between values parts separate entries of the source, which are not always exact repeats. Equal entries are not always repeated.

Assays:
IL-8 = IL-8 ELISA on THP-1 cell supernatants; assay type: cell-based, human; conditions: preliminary ELISA, CV75
Description: (§1) For cytokine profiling in THP-1, supernatants from wells were collected and then used for cytokine analysis by a Chemokine immunosorbent assay Bio-legend ELISA Max kit. The levels of available IL-8 protein from THP-1 cell supernatants was estimated using this kit which are regulated upon activation of THP-1 model. Surface receptor expression of human CD-86, CD-54, MHC-I and IL-T3 were analyzed by flow cytometry using standard BD FACS analyzer with PE and FITC fluorescent labeled antibodies from Biolegend and e Bioscience.
(§2) In order to understand the effect of modified PPD hairdyes on THP-1 immune sensitization, a certain degree of Cytotoxicity at CV75% viable where 25% cell death is required before evaluation of supernatants in THP-1 models for expression of cytokine IL-8 and receptor expression of CD86, CD54, MHC-I and IL-T3 surface receptors upon treatment with standard PPD and modified hair dye compounds. Most allergens show a specific dose-dependent alteration of CD86 and/or CD54 expression or secretion of cytokine profiles. But depending on chemical, the alteration pattern may vary.

[1] = Solubility observed when preparing dyes; assay type: physicochemical; conditions: water / organic solvents
[2] = system: cysteine peptide (Ac-RFAACAA-COOH); test: Direct Peptide Reactivity Assay, cysteine peptide; conditions: for % of Cysteine depletion, Avg / % of Cysteine depletion, Rep 2 / % of Cysteine depletion, Rep 3 / Reactivity Class: 1:10; for % of Cysteine depletion, Rep 1: peptide 0.02 mM : test chemical 0.2 mM (1:10); for Reactivity Class: cysteine
Description: For cysteine DPRA, an additional step was performed.
(§3) The mass spectrometric analysis was performed by use of a AB SCIEX QTRAP 5500 tandem mass spectrometry (MS/MS) system (AB SCIEX, Framingham, Mass., USA) operating in triple quadrupole positive mode (ESI+) equipped with an AB Sciex Turbo Ion Spray interface. Acquisition and analysis of data were performed with Analyst software ver. 1.6.2 (Applied Biosystems).

HaCaT cells = test: In vitro cell cytotoxicity (MTT) assay on HaCaT cells; assay type: cell-based, human; conditions: for IC50: 72 h incubation, MTT
Text: HaCaT (human, adult, low calcium, high temperature, human adult skin keratinocytes) cells were obtained from the IMB (Institute of Medical Biology) Skin Cell Bank. Fetal bovine serum (FBS), Dulbecco's minimum essential medium (DMEM) and trypsin EDTA solution were purchased from GE healthcare life sciences, Utah. Penicillin/streptomycin, dimethyl sulfoxide (DMSO), and phosphate buffered saline (PBS) were from Fisher Scientific (Singapore). Para-phenylenediamine (PPD) was purchased from Sigma Aldrich (Singapore). PPD analogues such as Dimer, trimer, ethyl hexyl para-phenylenediamine (EHPPD), hexyl para-phenylenediamine (HPPD), Bandrowski base (BB) were synthesized in house.
Cell viability was essentially determined using the MTT assay as described in the literature. The HaCaT cells were grown in DMEM with 10% FBS and 1% penicillin/streptomycin. The cells in T-75 cm^2 culture flasks were incubated with 5% CO2 at 37° C. in a humidified incubator. The HaCaT cells were grown to expected confluency and then they were harvested by trypsinizing the cell with 0.25% trypsin/EDTA and incubated at 37° C. for 5 min to obtain the complete cell detachment. After the incubation, cell pellets were resuspended, and washed twice with 1×PBS. The cell suspension in 1×PBS was counted and adjusted to 1×10^5/mL. A HaCaT keratinocyte suspension (100 μL in 1×PBS) with a cell concentration of 1×10^5 cells/mL) and a test solution (100 μL in milli-Q water) were combined in each well of two 96-well plates. Test solutions with a desired concentration were prepared by serial dilutions of the stock solutions with 1×PBS.
For the cytotoxicity experiment, cells were seeded at a density of 5×10^3 in 200 ul of medium into each well of 96-well plates. Cells were seeded as three sets of four replicates for each concentration. After 24 h of incubation, the cells were washed with PBS and cultured for 72 h with 200 ul of 10% FBS containing DMEM medium, together with the different concentrations of the test compounds ranging from 500 μM to 1.9 μM for PPD and analogues 1-5 and standard in a serial dilution. Then the medium was removed and 100 μl of MTT [3-(4,5-dimethylthiazol-2yl)-2,5-diphenyl-2H-tetrazolium bromide](1 mg/ml) (Alfa Aesar, Singapore) in PBS was added. At the end of 4 h incubation, the plates were removed from the incubator and plates were shaken for 5 min. The absorbance at 570 nm was determined using Bio-Tek plate reader. The cell viability rates were calculated from absorbance readings and represented as percentages of control value (untreated cells).

[3] = system: lysine peptide (Ac-RFAAKAA-COOH); test: Direct Peptide Reactivity Assay, lysine peptide; conditions: for % of Lysine depletion, Avg / % of Lysine depletion, Rep 2 / % of Lysine depletion, Rep 3 / Reactivity Class: 1:50; for % of Lysine depletion, Rep 1: peptide 0.02 mM : test chemical 1 mM (1:50); for Reactivity Class: lysine
Description: as §3

[4] = system: cysteine and lysine peptides; test: Direct Peptide Reactivity Assay, mean of cysteine and lysine depletion (FIG. 12); conditions: for Sensitizing potential predicted from mean peptide depletion: cysteine 1:10 / lysine 1:50 model; for Mean peptide depletion: mean of cysteine (1:10) and lysine (1:50), FIG. 12
Description: Direct reactivity of test chemical to lysine-based synthetic peptide was determined in reactions containing 100 mM ammonium acetate buffer (pH 10.2). The final concentration of lysine peptide was 20 μM in a final reaction volume of 0.3 ml. Direct reactivity of test chemicals to cysteine-based synthetic peptide was determined in 100 mM Sodium Phosphate buffer of pH 7.5.
For the DPRA, incubation mixtures were prepared using each peptide to test compound ratios of both 1:10 for cysteine peptide and 1:50 for lysine peptide, according to Table 19. […] Sample reactions were initiated by adding 3 μl of a test chemical stock solution for cysteine and 15 μl stock solution for lysine peptide. These mixtures were then placed in a temperature-controlled shaking incubator at 25° C.
At each time point (20 mins/24 hours), the incubation mixtures were quenched with 75 μL of 95% ACN/H2O, and mildly vortexed (600 rpm, 3 seconds). For Lysine DPRA experiment, 10 μl of aliquot was diluted with 2% ACN/H2O, vortexed and stored at −80° C. until analysis by LC-MS/MS. For cysteine DPRA, an additional step was performed. 10 μl of cysteine reaction mixture, at time points 20 min and 24 h were diluted in 180 μl of 2% ACN/H2O. To which, a 10 μl aliquot of a 16 mM dithiothreitol solution (prepared in water) was then added, and samples were heated in a 45° C. oven for 30 min, then allowed to cool to room temperature prior to analysis. The peptide depletion (PD) percentage was obtained using this equation.

[5] = Skin permeation in vertical Franz diffusion cells; assay type: in vitro ADME, porcine; conditions: 8 h; for Penetration profile PPD vs derivatives (times less than PPD): ratio of PPD penetration to that of the compound
Description: Porcine ears were generously provided by the NUS Department of Surgery. The ears were frozen at −80° C. until use (up to 3 months) and thawed at room temperature on the day preceding the experiment. Prior to the experiment, the skin was separated from the cartilage and dermatomed to a thickness of ˜1.0 mm using an Acculan™ 3Ti dermatome (Aesculap, Inc., B. Braun, USA).
The PPD and derivatives were dissolved in deionized water at 1% w/v. The PPD and PPD derivatives 1-5 solutions were purged with argon gas to minimize oxidation of the donor solution.
Skin penetration studies were carried out using vertical Franz diffusion cells (PermeGear, USA) immersed in a 37° C. water bath. The donor and receptor volumes were 900 µL and 5 mL, respectively; the mean surface area of penetration was 0.64 cm^2. Upon insertion of the skin pieces into the Franz cells, the skin was equilibrated for 45 min with PBS in the receptor compartment. After equilibration, the skin's trans-epidermal water loss (TEWL) was measured using an Aquaflux AF300 (Biox, UK) to assess the integrity of the skin's stratum corneum barrier. The donor solution, consisting of PPD or derivative 1-5 (n=3 Franz cells each), was then added to the donor compartment and the penetration experiments were conducted for 8 h. The receptor solutions were continuously stirred with magnetic stirrers. At fixed time points, aliquots of 200 μL were taken from the receptor solution of each cell and the receptor solution topped up with 200 μL of fresh PBS. At the end of the experiment, the donor and receptor solutions were removed and the cells dismantled. For the purpose of mass balance on the PPD, PPD derivatives 1-5 the skin pieces and swabs of their outer surfaces were collected and stored in acetonitrile for PPD or derivative 1-5 extraction. The donor solution as well as PBS used to thoroughly wash each part of the Franz cells were also collected.
PPD, PPD derivatives 1-5 and metabolite concentrations in all permeation and mass balance samples were measured by LCMS. PPD steady state fluxes and permeability coefficients were calculated by fitting the solution to Fick's second law of diffusion at the steady state to the linear part of each experimental cumulative amount curve.
The validated method LCMS was applied to quantify PPD, PPD derivative 1-5 and metabolites from skin permeation study samples. FIGS. 3 and 4 show LCMS spectra for the identification of PPD and PPD derivatives 1 and 2 and metabolites from skin permeation study experiment.

ILT3 = ILT3 surface expression on THP-1 by flow cytometry; assay type: cell-based, human; conditions: in comparison to DCNB
Description: as §1, §2

Row | Compound | IL-8 expression (IL-8) | % of Cysteine depletion, Avg ([2]; 20 min) [%] | % of Cysteine depletion, Rep 2 ([2]; 20 min) [%] | % of Cysteine depletion, Rep 3 ([2]; 20 min) [%] | % of Cysteine depletion, Rep 1 ([2]; 20 min) [%] | % of Cysteine depletion, Avg ([2]; 24 h) [%] | % of Cysteine depletion, Rep 2 ([2]; 24 h) [%] | % of Cysteine depletion, Rep 3 ([2]; 24 h) [%] | % of Cysteine depletion, Rep 1 ([2]; 24 h) [%] | Reactivity Class ([2]; 20 min) | Reactivity Class ([2]; 24 h) | IC50 (HaCaT cells) [µM] | % of Lysine depletion, Avg ([3]; 20 min) [%] | % of Lysine depletion, Rep 2 ([3]; 20 min) [%] | % of Lysine depletion, Rep 3 ([3]; 20 min) [%] | % of Lysine depletion, Rep 1 ([3]; 20 min) [%] | % of Lysine depletion, Avg ([3]; 24 h) [%] | % of Lysine depletion, Rep 2 ([3]; 24 h) [%] | % of Lysine depletion, Rep 3 ([3]; 24 h) [%] | Sensitizing potential predicted from mean peptide depletion [4] | other results
1 | NC1=CC(=Nc2ccc(N)cc2)C(N)=CC1=Nc1ccc(N)cc1 [Bandrowski Base, reference compound] | increased expression | 44.2 | 44.5 | 45.5 | 42.5 | 70.7 | 69.9 | 70.4 | 71.8 | High | High | 6.09 | 6.7 | 7.89 | 2.54 | 9.58 | 5.6 | 6.0 | 5.5 | moderate sensitizer | Solubility (in words) [1]: limited solubility in water; % of Lysine depletion, Rep 1 ([3]; 24 h): 5.4%; Reactivity Class ([3]; 20 min): Low; Reactivity Class ([3]; 24 h): Low; Mean peptide depletion [4]: 38.9%
2 | COCc1cc(N)ccc1N [MEPPD, 2-(methoxymethyl)benzene-1,4,-diamine, reference compound] | increased expression | – | – | – | – | – | – | – | – | – | – | 544 | – | – | – | – | – | – | – | strong sensitizer | % Parent compound Penetrated (mean) ([5]; 1% W/V applied): 0.02%; % Parent compound Recovery (mean) ([5]; 1% W/V applied): 95.39%; % converted to metabolite (mean) ([5]; 1% W/V applied): 0.019%; Penetration profile PPD vs derivatives (times less than PPD) [5]: 8 and 8.1; Penetration profile PPD vs derivatives (times less than PPD) ([5]; listed as ME-PPD): about 7.5; ILT3 (inhibitory receptor) expression (ILT3): increased; Fold increase in IC50 compared to PPD (HaCaT cells): 19 fold; Mean peptide depletion [4]: 53.2%
3 | Nc1ccc(Nc2ccc(Nc3ccc(N)cc3)cc2)cc1 [PPD derivative 2, N^1,N^4-bis(4-aminophenyl)-1,4-benzenediamine] | – | 54.0 | 53.6 | 52.6 | 55.6 | 64.1 | 65.6 | 61.2 | 65.6 | High | High | – | 11.2 | 11.8 | 11.8 | 10.1 | 9.08 | 9.79 | 8.28 | high sensitizing agents | % Parent compound Penetrated (mean) ([5]; 1% W/V applied): 0.00173%; % converted to metabolite (mean) ([5]; 1% W/V applied): 0.008%; recovery at 8 h, 1 % w/v ([5]; pig, 1% W/V applied, read-out: % Parent compound Recovery (mean)): 96.4%; Penetration profile PPD vs derivatives (times less than PPD) ([5]; listed as PPD 2): 93 and 93.6; ILT3 (inhibitory receptor) expression (ILT3): increased; Fold increase in cytotoxicity compared to PPD 1 (HaCaT cells): 6 fold; IC50 (HaCaT cells; Homo sapiens, HaCaT, 72 h): 4.14 µM; % of Lysine depletion, Rep 1 ([3]; 24 h): 8.97%; Reactivity Class ([3]; 20 min): Low; Reactivity Class ([3]; 24 h): Low
